Results as given in the NIST ThermoML archive (doi:10.1016/j.fluid.2011.11.011).
Numbers after ± are expanded uncertainties.

Test: an = ratio of the nth substance listed
Conditions: 275 K, Pendant drop shape

| surface tension liquid-gas (a1 = 500) [mN/m] | surface tension liquid-gas (a1 = 1000) [mN/m] | surface tension liquid-gas (a1 = 2000) [mN/m] | surface tension liquid-gas (a1 = 2500) [mN/m] | surface tension liquid-gas (a1 = 3000) [mN/m] | surface tension liquid-gas (a1 = 3500) [mN/m] | surface tension liquid-gas (a1 = 4000) [mN/m] | surface tension liquid-gas (a1 = 5000) [mN/m] | surface tension liquid-gas (a2 = 0) [mN/m] | Structure (SMILES) |
| --- | --- | --- | --- | --- | --- | --- | --- | --- | --- |
| 56.6 ± 1.8 | 53.1 ± 1.7 | 41.2 ± 1.3 | 38.9 ± 1.2 | 37.3 ± 1.2 | 37 ± 1.2 | 36.7 ± 1.2 | 36.7 ± 1.2 |  | CCCCCCCCCCCCOS(=O)(=O)[O-].[Li+] [lithium dodecyl sulfate] + O |
|  |  |  |  |  |  |  |  | 72.7 ± 2.3 | O [water] + CCCCCCCCCCCCOS(=O)(=O)[O-].[Li+] |
